Earlier results in patent US20250319149A1, “COMPOSITIONS FOR TREATING IMBALANCES OF THE GUT MICROBIOTA” (Provexis Natural Products Limited, priority 2022, published 2025).

Tested on: TMAO-induced atherosclerosis
Details: mice; Chen et al.

## Oc1ccc(C=Cc2cc(O)cc(O)c2)cc1 [resveratrol]
  TMAO-induced atherosclerosis: attenuated
